Source: the supplement of paper PMC8671470
± gives the standard deviation of the averaged measurements.

Legend:
Conditions in all cases: 72 h
[1] = tested on: MV4-11; assay: cell viability (% survival relative to DMSO control, bortezomib = 0%); higher = less cytotoxic
Method in brief: (§1)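 Seeding density for each of the 10 AML and 5 CML cell lines was titrated to the linear growth range. Cells went into 384-well plates pre-printed in duplicate with compounds at 1, 10, 100, 1000 or 10000 nM and were held for 72 h at 37 °C with 5% CO2. CellTiter-Glo luminescence then provided the readout. Percent survival is expressed relative to vehicle at 100% and a 10 µM positive control at 0%, averaged over duplicates.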

[2] = tested on: KCL-22; assay: as above
Method in brief: as §1

[3] = tested on: NOMO-1; assay: as above
Method in brief: as §1

[4] = tested on: Mono-Mac-6; assay: as above
Method in brief: as §1

[5] = tested on: BV-173; assay: as above
Method in brief: as §1

[6] = tested on: KU-812; assay: as above
Method in brief: as §1

[7] = tested on: THP-1; assay: as above
Method in brief: as §1

[8] = tested on: MOLM-13; assay: as above
Method in brief: as §1

[9] = tested on: HL-60; assay: as above
Method in brief: as §1

[10] = tested on: ML-2; assay: as above
Method in brief: as §1

[11] = tested on: SHI-1; assay: as above
Method in brief: as §1

[12] = tested on: K-562; assay: as above
Method in brief: as §1

[13] = tested on: HEL; assay: as above
Method in brief: as §1

[14] = tested on: LAMA-84; assay: as above
Method in brief: as §1

[15] = tested on: KG-1; assay: as above
Method in brief: as §1

[16] = tested on: MV4-11
Method in brief: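 The IC50 was read from log-logistic dose–response fits. Fifteen myeloid leukaemia lines were exposed for 72 h at 37 °C with 5% CO2 to five tenfold doses from 1 to 10,000 nM in duplicate. ATP luminescence, normalised to vehicle and to a 10 µM positive control, was fitted with four parameters.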

[17] = tested on: HL-60; assay: area under dose-response curve (viability, 1 nM-10 uM) (fraction (0-1)); higher = more sensitive
Method in brief: (§2)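 Four-parameter log-logistic fits in drc and PharmacoGx supplied area under the curve where it is given. Underlying viability came from CellTiter-Glo, normalised to DMSO and proteasome-inhibitor wells, with the proteasome inhibitor at 10 μM. HL-60 cells in RPMI 1640 plus 10% FBS had been rescreened against the full library at five tenfold concentrations of 1–10,000 nM, in duplicate on 384-well plates, with DMSO or 100 nM of one of three metabolic inhibitors, for 72 h at 37 °C, 5% CO2.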

[18] = tested on: HL-60; assay: cell viability (% survival relative to DMSO control); higher = less cytotoxic
Method in brief: as §2

COC(=O)[C@]12CCC(C)(C)C[C@H]1[C@H]1C(=O)C=C3[C@@]4(C)C=C(C#N)C(=O)C(C)(C)[C@@H]4CC[C@@]3(C)[C@]1(C)CC2 [Bardoxolone methyl]
Conditions	area under dose-response curve, co-treatment: AZD3965 100 nM	area under dose-response curve, co-treatment: DMSO vehicle	area under dose-response curve, co-treatment: GSK2194069 100 nM	area under dose-response curve, co-treatment: pictilisib 100 nM	cell viability, 1 nM [%]	cell viability, 10 nM [%]	cell viability, 100 nM [%]	cell viability, 1000 nM [%]	cell viability, 10000 nM [%]
[1]	–	–	–	–	113	111	112	94.3	96.9
[2]	–	–	–	–	100	107	112	56.2	0.0358
[3]	–	–	–	–	99.4	99.3	115	101	80.8
[4]	–	–	–	–	82.9	103	123	44.6	13.7
[5]	–	–	–	–	89.7	102	116	61	5.94
[6]	–	–	–	–	84.9	104	113	91.3	59.2
[7]	–	–	–	–	95.2	104	108	81.6	56.3
[8]	–	–	–	–	107	81.7	118	91.9	87.5
[9]	–	–	–	–	114	91.8	112	93.6	94.2
[10]	–	–	–	–	91.7	103	113	73.1	-0.425
[11]	–	–	–	–	107	103	118	106	94.3
[12]	–	–	–	–	106	97.5	114	98.8	86.9
[13]	–	–	–	–	106	92.6	117	84.7	-0.0991
[14]	–	–	–	–	98.9	96.1	107	106	86
[15]	–	–	–	–	96.6	101	117	53.5	1.37
[17]	0.0976	< 0.0301	0.0723	0.144	–	–	–	–	–

Conditions	IC50 (cell viability) [µM]
[16]	> 10

cell viability [%], [18]
Conditions	0.001 µM	0.01 µM	0.1 µM	1 µM	10 µM
co-treatment: AZD3965 100 nM	101 ± 1.8	98 ± 5	110 ± 4	90.8 ± 16	32.6 ± 44
co-treatment: DMSO vehicle	102.3 ± 0.12	97.6 ± 2.4	101 ± 4.3	97.8 ± 1.5	107 ± 1.7
co-treatment: GSK2194069 100 nM	100 ± 3.3	92.7 ± 7.7	104 ± 3.8	88.8 ± 13	54.3 ± 56
co-treatment: pictilisib 100 nM	98.9 ± 1.8	78.7 ± 5.8	73.5 ± 3.1	78.4 ± 4.4	0.653 ± 0.12

O=C(C1CC1)N1CC[C@@H](C=C2NNC(=O)N2c2ccc(-c3ccc4occc4c3)cc2)C1
cell viability [%]
Conditions	1 nM	10 nM	100 nM	1000 nM	10000 nM
[1]	88.1	95.7	81	84	59.9
[2]	99.1	101	94.9	86.2	58.3
[3]	98.1	98.6	107	99.4	89.9
[4]	94.7	91.2	90	88	64.9
[5]	97.1	86.3	82.4	79	63.7
[6]	99.8	94.8	99.9	102	67.1
[7]	98.7	93.3	104	103	101
[8]	101	77.4	75.1	53.2	44.7
[9]	101	66.7	48.4	35	38.1
[10]	101	98.4	107	97.8	88.4
[11]	90.4	99.4	108	94.7	79.6
[12]	95.4	78.1	73	79	54.4
[13]	106	90.5	107	101	78.5
[14]	98.5	97.5	88.7	82.8	72.4
[15]	95.4	104	112	90.3	82.4

Conditions	IC50 (cell viability) [µM]
[16]	> 10

cell viability [%], [18]
Conditions	0.001 µM	0.01 µM	0.1 µM	1 µM	10 µM
co-treatment: AZD3965 100 nM	101 ± 1.3	104 ± 5.5	81.6 ± 8.7	76.9 ± 0.96	68.9 ± 1.8
co-treatment: DMSO vehicle	101 ± 2.7	105 ± 2.8	95.1 ± 3.5	92 ± 7.1	85.8 ± 5.1
co-treatment: GSK2194069 100 nM	96.3 ± 1.3	103.6 ± 0.49	92 ± 2.8	86.9 ± 1	82.4 ± 3.5
co-treatment: pictilisib 100 nM	97.7 ± 10	104 ± 7.5	92.53 ± 0.68	76.6 ± 8.2	73.1 ± 6.3
